US7659081B2, “Determination of AM-binding proteins and the association of adrenomedullin (AM) therewith” (The United States of America as represented by the …, priority 1999, dated 2010)

Experiments:
factor H = factor H (Homo sapiens, UniProt P08603); assay: Multi-well plate competition of fluorescein-labeled AM binding to factor H; design: purchased Sigma; details: 50 nM fluorescein-labeled AM; factor H 5 ng/well; increasing concentrations of unlabeled competitor
Experimental: Lane 1: horseradish peroxidase (5 μg), a glycosylated protein used as positive control; Lane 2: soybean trypsin inhibitor (5 μg), a non-glycosylated protein used as negative control; Lane 3: AMBP-1 (2 μg). […] Lane 1: isoelectric focusing markers; Lane 2: AMBP-1 (4 μg). […] Lane 1: AMBP-1 (100 ng); Lane 2: AMBP-1 (200 ng); Lane 3: commercially available human factor H (50 ng); Lane 4: human plasma (0.2 μl). […] Results represent one of two independent experiments. Values represent mean and standard deviation of three determinations. “B/B0” indicates the ratio of signals generated in the presence/absence of unlabeled competitor.
Alternatively, the AM/fH interaction was analyzed using a multi-well assay. In accordance with this assay, a 96-well polyvinylchloride (PVC) plate was coated with factor H (5 ng/well, Sigma, St. Louis, Mo.). The plate was blocked with a solution containing TBS, 0.1% ATC, and 0.1% TWEEN® 20 nonionic detergent, and then incubated with fluorescein-labeled AM (50 nM) for 2 hr. Prior to the development of the assay, the wells were incubated for various time periods with PBS or 3M NaSCN pH 7.4. Following this, the plate was washed and incubated with anti-fluorescein polyclonal antibody (1:1000, Molecular Probes) and ^125I-Protein A (Amersham Pharmacia Biotech). Radioactivity was determined using a gamma counter. FIG. 6B.

pancreatic islets = assay: Insulin secretion and cAMP in isolated pancreatic islets; format: cell-based, rat; details: islets with AM and/or factor H
Source text: A representative experiment is shown. Values for each treatment represent the mean and standard deviation of three independent wells. […] All values were statistically different (p<0.05) from the negative controls (first bar).
Pancreatic islets were isolated from 12 rats as previously described (A. Martínez et al., 2000, Endocrinology 141:406-411). Briefly, the heart of each rat was perfused with Hank's balanced salt solution (Sigma) to remove blood from pancreatic vessels. A small canula was inserted into the common biliary duct while the coledoco was sealed. Twenty to twenty-five milliliters of 0.4 mg/ml collagenase XI (Sigma) in Hank's solution was pumped through the canula until the pancreas was fully inflated. The pancreas was removed and incubated at 37° C. for 20 min. Following this, 20 ml of ice-cold Hank's solution was added and the pancreas dissociated by vigorous vortexing. After several washes, the islets were collected and distributed into 24 well plates using a dissecting microscope, with approximately 70 islets per well.
Freshly isolated islets were incubated in RPMI-1640 (Life Technologies) containing 5.6 mM glucose for 45 min at 37° C. […] Insulin and cAMP were measured by radioimmunoassay with commercial kits (Amersham, Arlington Heights, Ill.), according to the manufacturer's directions. […]

factor H, sequence (P08603 19-1231): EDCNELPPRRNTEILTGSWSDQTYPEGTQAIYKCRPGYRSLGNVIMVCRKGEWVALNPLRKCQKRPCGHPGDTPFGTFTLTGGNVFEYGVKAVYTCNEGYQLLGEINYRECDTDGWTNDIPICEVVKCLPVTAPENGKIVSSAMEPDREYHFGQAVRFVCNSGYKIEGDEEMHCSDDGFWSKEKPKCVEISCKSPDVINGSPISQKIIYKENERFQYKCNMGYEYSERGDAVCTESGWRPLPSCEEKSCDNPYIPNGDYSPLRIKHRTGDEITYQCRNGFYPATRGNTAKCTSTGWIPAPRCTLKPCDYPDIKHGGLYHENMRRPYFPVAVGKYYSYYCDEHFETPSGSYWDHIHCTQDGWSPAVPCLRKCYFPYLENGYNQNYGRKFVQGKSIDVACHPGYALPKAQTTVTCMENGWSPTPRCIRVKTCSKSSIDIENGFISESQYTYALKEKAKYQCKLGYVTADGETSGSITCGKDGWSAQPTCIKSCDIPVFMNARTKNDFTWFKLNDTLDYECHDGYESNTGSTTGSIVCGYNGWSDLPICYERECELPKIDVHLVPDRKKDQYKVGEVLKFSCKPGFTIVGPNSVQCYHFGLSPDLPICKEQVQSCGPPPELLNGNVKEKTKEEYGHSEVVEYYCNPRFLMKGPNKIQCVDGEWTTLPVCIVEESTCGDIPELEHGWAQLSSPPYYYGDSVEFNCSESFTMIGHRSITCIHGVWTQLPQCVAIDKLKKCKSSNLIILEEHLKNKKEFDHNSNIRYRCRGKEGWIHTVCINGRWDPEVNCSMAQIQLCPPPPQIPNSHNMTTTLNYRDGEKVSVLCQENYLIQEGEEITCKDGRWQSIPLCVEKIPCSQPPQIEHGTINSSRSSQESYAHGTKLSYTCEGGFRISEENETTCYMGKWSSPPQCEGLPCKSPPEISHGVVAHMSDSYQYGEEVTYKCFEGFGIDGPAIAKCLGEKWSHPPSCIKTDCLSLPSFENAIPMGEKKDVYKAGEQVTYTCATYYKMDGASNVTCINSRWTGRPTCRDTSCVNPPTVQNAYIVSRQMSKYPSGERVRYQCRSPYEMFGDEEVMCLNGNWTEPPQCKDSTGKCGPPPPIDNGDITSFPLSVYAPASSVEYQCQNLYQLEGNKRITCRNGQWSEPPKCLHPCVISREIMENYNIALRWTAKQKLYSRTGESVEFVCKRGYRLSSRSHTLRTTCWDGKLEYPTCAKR

In the case of `CC[C@H](C)[C@H](NC(=O)[C@H](CCC(N)=O)NC(=O)[C@H](Cc1c[nH]cn1)NC(=O)[C@H](C)NC(=O)[C@H](CC(C)C)NC(=O)[C@H](CCCCN)NC(=O)[C@H](CCC(N)=O)NC(=O)[C@@H](NC(=O)[C@@H](NC(=O)[C@@H]1CSSC[C@H](NC(=O)CNC(=O)[C@H](Cc2ccccc2)NC(=O)[C@H](CO)NC(=O)[C@H](CCCNC(=N)N)NC(=O)[C@H](CC(C)C)NC(=O)CNC(=O)[C@H](CCC(N)=O)NC(=O)[C@H](Cc2ccccc2)NC(=O)[C@H](CC(N)=O)NC(=O)[C@H](CC(N)=O)NC(=O)[C@H](CCSC)NC(=O)[C@H](CO)NC(=O)[C@H](CCC(N)=O)NC(=O)[C@H](CCCNC(=N)N)NC(=O)[C@@H](N)Cc2ccc(O)cc2)C(=O)N[C@@H](CCCNC(=N)N)C(=O)N[C@@H](Cc2ccccc2)C(=O)NCC(=O)N[C@@H]([C@@H](C)O)C(=O)N1)[C@@H](C)O)C(C)C)C(=O)N[C@@H](Cc1ccc(O)cc1)C(=O)N[C@@H](CCC(N)=O)C(=O)N[C@@H](Cc1ccccc1)C(=O)N[C@H](C(=O)N[C@@H](CC(=O)O)C(=O)N[C@@H](CCCCN)C(=O)N[C@@H](CC(=O)O)C(=O)N[C@@H](CCCCN)C(=O)N[C@@H](CC(=O)O)C(=O)N[C@@H](CC(N)=O)C(=O)N[C@H](C(=O)N[C@@H](C)C(=O)N1CCC[C@H]1C(=O)N[C@@H](CCCNC(=N)N)C(=O)N[C@@H](CO)C(=O)N[C@@H](CCCCN)C(=O)N[C@H](C(=O)N[C@@H](CO)C(=O)N1CCC[C@H]1C(=O)N[C@@H](CCC(N)=O)C(=O)NCC(=O)N[C@@H](Cc1ccc(O)cc1)C(N)=O)[C@@H](C)CC)C(C)C)[C@@H](C)O` [AM, Adrenomedullin], the “Effect on binding of fluorescein-labeled AM to factor H-coated plate” value (factor H) is reported as “competitively inhibited”, the cAMP in islets (pancreatic islets) is reported as “concomitant elevations on cAMP” and the Insulin secretion (pancreatic islets; 20.6 mM glucose, 45 min) is reported as “dose-dependent decreases in insulin secretion”.
